Assay results reported in patent US9618524B2, “Method, composition, isolation and identification of a plaque particle and related biomarker” (Plaxgen Inc., priority 2012, dated 2017).

How the values were obtained:
Test in all cases: Mass spectroscopy proteomics, semi-quantitative binding affinity of serum proteins (plaqueproteome, Table 2)
Details in all cases: higher number = stronger affinity
Tau plaque particles = tested on: Tau plaque particles; set-up: species or system human
Description: For Tau-74 (74-102) (Exon 3/Insert 2 domain) preparation, 1 mg of Tau-74 was suspended in 1 mL of PBS and the sample was incubated at 37° C. for 2 hrs. Similarly for preparing Tau-275 (275-305) (Repeat 2 domain) 1 mg of the peptide was suspended in 1 mL of PBS and the sample was incubated at 37° C. for 2 hrs. After incubation, all the samples were centrifuged for 5 min. at 5000 rpm to remove precipitate, if any, and the supernatant containing oligomers/aggregates were used for in vitro amyloid plaque particles formation assay. For detecting Tau plaque particles, Thioflavin S (Ex/Em=430 nm/550 nm) amyloid binding fluorescent dye (10 μg) was used in the assay.
Next, to isolate Tau plaque particles, as performed for Abeta-42 and Abeta-28 plaque particles isolation, diluted serum samples were used for incubation separately with Tau-45, Tau-74 and Tau-275 oligomers/aggregates. Each assay was performed in 1 mL reaction (800 μL of 50% plasma or serum) and 200 μL (30 μg) of each Tau aggregates and the mixtures were incubated at 37° C. for 1 hr. To the each mixture Thioflavin S dye (120 μg) was added and the sample was incubated for additional 30 min at 37° C. After the incubation, each sample was directly used for sample acquisition using flow cytometer (FACS ARIA II, BD Biosciences, San Jose, Calif.). After initial detection of Tau plaque particles, gates were drawn in the acquisition blot to separately sort and isolate fluorescently labeled Tau plaque particles.
(§1) For preparing trypsin digested peptide sequences, the isolated plaque particles were centrifuged at 10000 rpm for 5 min and the pellet containing plaque particles was resuspended in 100 μl PBS buffer. Stock solutions of digestion buffer (Ammonium Biocarbonate 50 mM), reducing buffer (DDT 100 mM) and alkylation buffer (lodoaceamide 100 mM) were prepared and stored at −20° C. for up to two months. For trypsin digestion, 100 μl of each plaque particles (2000 of Abeta-42, cholesterol, Tau and alpha-synuclein) were precipitated using cold acetone −80° C. by adding 4X's the volume. The samples were placed on dry ice for 10 min with intermittent vortex. Next, the samples were centrifuged at 4° C. at 10000 G for 10 min. Top layer of acetone was carefully removed from the tube with care not to disturb the plaque particles pellet. The samples were speed-vac for 10 min to ensure all acetone has been boiled away. The plaque particles pellet were reconstituted with 15 μl 8M Urea 100 mM Ammonium bicarbonate stock and 20 μl protease max solution. The protease max solution (Promega, Madison, Wis.) was prepared from stock by adding 60 μl 50 mM Ammonium bicarbonate and used for 3 solution digests (20 μl each). […] The tubes were incubated at 55° C. for 30 minutes. The tubes were then removed and brought to the room temperature followed by addition of 3.2 μl of 1M acrylamide and incubated at room temperature for 30 minutes. To the sample, 63 μL of 50 mM Ammonium bicarbonate was added for a final volume of 98 μl and 2 μl of trypsin (10 μg, Trypsin/Lys C Mix). After mixing the solution with pipet the samples were incubated at 37° C. overnight. After the overnight digest, the tryptic digest were quenched and acidified by adding 10 μl of 50% formic acid/water stock dilution. The samples were centrifuged at 10000 G for 2 minutes and purified using stage tip and used for MS/Mass analysis.
(§2) All MS/MS samples were analyzed using Sequest (Thermo Fisher Scientific, San Jose, Calif., USA; version 1.0). Sequest was set up to search the SUMS_uniprot_Human database (35847 entries) assuming the digestion enzyme strict trypsin. Sequest was searched with a fragment ion mass tolerance of 1.00 Da and a parent ion tolerance of 20 PPM. Propionamide of cysteine was specified in Sequest as a fixed modification. Oxidation of methionine and phospho of serine, threonine and tyrosine were specified in Sequest as variable modifications.

[1] = biological target: T1, alpha-synuclein plaque particles (Homo sapiens, UniProt P37840)
T1 construct: 140 amino acids polypeptide
Description: To prepare oligomers/aggregates of human alpha-synuclein (140 amino acids polypeptide), 1 mg of the recombinant alpha-synuclein protein was suspended in 1 mL of PBS and the sample was incubated at 37° C. for 2 hrs. After incubation, all the samples were centrifuged for 5 min. at 5000 rpm to remove precipitate, if any, and the supernatant containing oligomers/aggregates were used in vitro plaque particles formation assay. For detecting alpha-synuclein plaque particles Thioflavin S (Ex/Em=430 nm/550 nm) amyloid binding fluorescent dye (10 μg) was used.
Similarly, to isolate alpha-synuclein plaque particles, diluted plasma or serum samples obtained from AD subjects were used for incubation with alpha-synuclein plaque oligomers/aggregates. Each assay was performed in 1 mL reaction (800 μL of 50% plasma or serum) and 200 μL (30 μg) of the alpha-synuclein aggregates and the mixtures were incubated at 37° C. for 1 hr. To the mixture Thioflavin S dye (120 μg) was added and the sample was incubated for additional 30 min at 37° C. After the incubation, the mixture was directly used for sample acquisition using flow cytometer (FACS ARIA II, BD Biosciences, San Jose, Calif.). After initial detection of alpha-synuclein plaque particles, gates were drawn in the acquisition blot to separately sort and isolate fluorescently labeled alpha-synuclein particles.
as §1, §2
Scaffold (version Scaffold_4.2.1, Proteome Software Inc., Portland, Oreg.) was used to validate MS/MS based peptide and protein identifications.

[2] = tested on: Low density cholesterol (Chl small) plaque particles; set-up: species or system human
Description: (§3) The goal was to isolate plaque particles synthesized in the bio-fluids in a relatively pure form to enable their subsequent use for identification of components that contribute to the plaque formation. In order to isolate cholesterol plaque particles, the plasma or serum samples obtained from atherosclerotic subjects were first centrifuged at 5,000 rpm for 5 min and the supernatants were transferred to new centrifuge tubes. Next, the supernatants were diluted in PBS to make 50% of the serum and used for incubation with cholesterol oligomers/aggregates. Each assay was performed in 1 mL reaction (800 μL of 50% plasma or serum) and 200 μL (30 μg) of the Cholesterol aggregates and the mixtures were incubated at 37° C. for 1 hr After the incubation, the mixture was directly used for sample acquisition using flow cytometer (FACS ARIA II, BD Biosciences, San Jose, Calif.). […] In order to isolate these fractions, three sets of gates were drawn in the acquisition blot to separately sort and isolate High density or high complex cholesterol particles, Low density or low complex cholesterol particles and both High and low density cholesterol particles together.
as §1, §2
(§4) Scaffold (version Scaffold_4.2.1, Proteome Software Inc., Portland, Oreg.) was used to validate MS/MS based peptide and protein identifications. […] Protein probabilities were assigned by the Protein Prophet algorithm (Nesvizhskii, Al et al 2003).

[3] = tested on: High Density cholesterol (Chl Large) plaque particles; set-up: species or system human
Description: as §3, §1, §2, §4

[4] = biological target: T2, Abeta-42 plaque particles (Homo sapiens, UniProt P05067)
T2 construct: Abeta 1-42
Description: Next to isolate serum derived Abeta-42 plaque particles, the plasma or serum samples obtained from AD subjects were first centrifuged at 5,000 rpm for 5 min and the supernatants were transferred to new centrifuge tubes. Next, the supernatants were diluted in PBS to make 50% of the serum and plasma samples and used for incubation with Abeta-42 plaque oligomers/aggregates. Each assay was performed in 1 mL reaction (800 μL of 50% plasma or serum) and 200 μL (30 μg) of the Abeta-42 aggregates and the mixtures were incubated at 37° C. for 1 hr. To the mixture Thioflavin S dye (120 μg) was added and the sample was incubated for additional 30 min at 37° C. After the incubation, the mixture was directly used for sample acquisition using flow cytometer (FACS ARIA II, BD Biosciences, San Jose, Calif.). After initial detection of Abeta-42 plaque particles in the acquisition blot, gates were drawn in fluorescent dot blot to separately sort and isolate fluorescently labeled Abeta-42 particles.
as §1, §2
as §4, with “2003). […] Proteins sharing significant peptide evidence were grouped into clusters. Proteins were annotated with GO terms from NCBI (downloaded Jan. 17, 2014).” for “2003).”

Substance	Semi-quantitative analysis of proteins binding to different plaque particles: Tau (Tau plaque particles)	Semi-quantitative analysis of proteins binding to different plaque particles: Synuclein [1]	Semi-quantitative analysis of proteins binding to different plaque particles: Chl small [2]	Semi-quantitative analysis of proteins binding to different plaque particles: Chl Large [3]	Semi-quantitative analysis of proteins binding to different plaque particles: Abeta-42 [4]
Complement C1q subcomponent subunit B	2	2	0	1	0
Complement C1q subcomponent subunit C	2	1	1	1	0
Complement C1s subcomponent	2	1	1	3	0
Complement C3	85	71	67	73	63
Complement C4-A	50	37	36	44	28
Complement C4-B	52	37	35	44	32
Complement C5	1	4	3	5	0
Complement component C6	1	3	1	1	0
Complement component C7	4	1	6	4	0
Complement component C8 alpha chain	0	0	2	3	0
Complement component C8 beta chain	2	0	2	1	0
Complement component C8 gamma chain	2	2	1	0	0
Complement component C9	0	1	1	1	0
Complement factor B	13	10	14	9	12
